Measurements reported in ChEMBL document CHEMBL2073895, “Charged amino acids in the transmembrane domains are involved in the determination of the substrate specificity of rat Mrp2” (Mol Pharmacol, 2001).

Key:
Assay type in all cases: functional, cell membranes, Membrane vesicle
[1] = target: T1, ATP-binding cassette sub-family C member 2 (Rattus norvegicus, UniProt Q63120); test: TP_TRANSPORTER: inhibition of DNP-SG uptake (DNP-SG: 0.05 uM) in membrane vesicles from Mrp2-expressing Sf9 cells
[2] = target: T1, ATP-binding cassette sub-family C member 2; test: TP_TRANSPORTER: inhibition of E217betaG uptake (E217betaG: 0.055 uM) in membrane vesicles from Mrp2-expressing Sf9 cells
[3] = substrate: C[C@]12CC[C@@H]3c4ccc(O)cc4CC[C@H]3[C@@H]1CC[C@@H]2O[C@@H]1O[C@H](C(=O)O)[C@@H](O)[C@H](O)[C@H]1O; test: TP_TRANSPORTER: uptake in membrane vesicles from Mrp2-expressing Sf9 cells

| Molecule | IC50 [2] [µM] | also measured |
| --- | --- | --- |
| C[C@]12CC[C@@H]3c4ccc(O)cc4CC[C@H]3[C@@H]1CC[C@@H]2O[C@@H]1O[C@H](C(=O)O)[C@@H](O)[C@H](O)[C@H]1O [ESTRADIOL 17B GLUCURONIDE] |  | IC50 [1]: 13.3 µM |
| CCCCC/C=C\C\C=C/C=C/C=C/[C@@H](SC[C@@H](NC(=O)CC[C@H](N)C(=O)O)C(=O)NCC(=O)O)[C@@H](O)CCCC(=O)O [LEUKOTRIEN C4] | 0.65 |  |
| CCCCC/C=C\C\C=C/C=C/C=C/[C@@H](SC[C@H](N)C(=O)O)[C@@H](O)CCCC(=O)O [LEUKOTRIEN E4] | 9.83 |  |
| N[C@@H](CCC(=O)N[C@H](CSc1ccc([N+](=O)[O-])cc1[N+](=O)[O-])C(=O)NCC(=O)O)C(=O)O | 19.3 |  |
| CCCCC/C=C\C\C=C/C=C/C=C/[C@@H](SC[C@H](N)C(=O)NCC(=O)O)[C@@H](O)CCCC(=O)O [LEUKOTRIENE D4] | 5.48 |  |
| CN(C)C(=O)CCSC(SCCC(=O)O)c1cccc(/C=C/c2ccc3ccc(Cl)cc3n2)c1 (stereo not drawn) [MK-571] | 2.62 |  |
| CCCCC/C=C\C\C=C/C=C/C=C/[C@@H](SC[C@H](NC(=O)CC[C@@H](N)C(=O)O)C(=O)O)[C@@H](O)CCCC(=O)O [LEUKOTRIEN F4] | 10 |  |
| ATP-binding cassette sub-family C member 2 (Rattus norvegicus) (protein) MDKFCNSTFWDLSLLESPEADLPLCFEQTVLVWIPLGFLWLLAPWQLYSVYRSRTKRSSITKFYLAKQVFVVFLLILAAIDLSLALTEDTGQATVPPVRYTNPILYLCTWLLVLAVQHSRQWCVRKNSWFLSLFWILSVLCGVFQFQTLIRALLKDSKSNMAYSYLFFVSYGFQIVLLILTAFSGPSDSTQTPSVTASFLSSITFSWYDRTVLKGYKHPLTLEDVWDIDEGFKTRSVTSKFEAAMTKDLQKARQAFQRRLQKSQRKPEATLHGLNKKQSQSQDVLVLEEAKKKSEKTTKDYPKSWLIKSLFKTFHVVILKSFILKLIHDLLVFLNPQLLKLLIGFVKSSNSYVWFGYICAILMFAVTLIQSFCLQSYFQHCFVLGMCVRTTVMSSIYKKALTLSNLARKQYTIGETVNLMSVDSQKLMDATNYMQLVWSSVIQITLSIFFLWRELGPSILAGVGVMVLLIPVNGVLATKIRNIQVQNMKNKDKRLKIMNEILSGIKILKYFAWEPSFQEQVQGIRKKELKNLLRFGQLQSLLIFILQITPILVSVVTFSVYVLVDSANVLNAEKAFTSITLFNILRFPLSMLPMVTSSILQASVSVDRLERYLGGDDLDTSAIRRVSNFDKAVKFSEASFTWDPDLEATIQDVNLDIKPGQLVAVVGTVGSGKSSLVSAMLGEMENVHGHITIQGSTAYVPQQSWIQNGTIKDNILFGSEYNEKKYQQVLKACALLPDLEILPGGDMAEIGEKGINLSGGQKQRVSLARAAYQDADIYILDDPLSAVDAHVGKHIFNKVVGPNGLLAGKTRIFVTHGIHFLPQVDEIVVLGKGTILEKGSYRDLLDKKGVFARNWKTFMKHSGPEGEATVNNDSEAEDDDDGLIPTMEEIPEDAASLAMRRENSLRRTLSRSSRSSSRRGKSLKNSLKIKNVNVLKEKEKEVEGQKLIKKEFVETGKVKFSIYLKYLQAVGWWSILFIILFYGLNNVAFIGSNLWLSAWTSDSDNLNGTNNSSSHRDMRIGVFGALGLAQGICLLISTLWSIYACRNASKALHGQLLTNILRAPMRFFDTTPTGRIVNRFSGDISTVDDLLPQTLRSWMMCFFGIAGTLVMICMATPVFAIIIIPLSILYISVQVFYVATSRQLRRLDSVTKSPIYSHFSETVTGLPIIRAFEHQQRFLAWNEKQIDINQKCVFSWITSNRWLAIRLELVGNLVVFCSALLLVIYRKTLTGDVVGFVLSNALNITQTLNWLVRMTSEAETNIVAVERISEYINVENEAPWVTDKRPPADWPRHGEIQFNNYQVRYRPELDLVLKGITCNIKSGEKVGVVGRTGAGKSSLTNCLFRILESAGGQIIIDGIDVASIGLHDLRERLTIIPQDPILFSGSLRMNLDPFNKYSDEEVWRALELAHLRSFVSGLQLGLLSEVTEGGDNLSIGQRQLLCLGRAVLRKSKILVLDEATAAVDLETDSLIQTTIRKEFSQCTVITIAHRLHTIMDSDKIMVLDNGKIVEYGSPEELLSNRGSFYLMAKEAGIENVNHTEL |  | Km [3]: 3.91 µM |
